US20090069244A1, “Mutants of lactoferrin” (AM-Pharma B.V., priority 2007, published 2009)

Each substance was assayed on Methicillin Resistant Staphylococcus aureus (MRSA), Escherichia coli and/or Candida albicans (assay: Minimal inhibitory concentration (MIC) assay, microdilution). Settings: MIC not more than 1 dilution from the reference peptide (Pep001 or MD012) counts as equal activity.
Format: cell-based
Description: To compare antimicrobial activity of the mutants, the inventors made use of the minimal inhibitory concentration (MIC) assay, extensively described in the literature and which has become a world wide standardized test for, e.g., determining susceptibility of strains towards antibiotics (reference “National Committee for Clinical Laboratory Standards: Performance standards for antimicrobial susceptibility testing; fourteenth informational supplement. M100-S14, Volume 24, Wayne, Pa.; 2004.”). The MIC assay is a fast, reliable assay that is used throughout the world in medical microbiology divisions to test e.g., antibiotic response of clinical isolates to monitor antibiotic therapy. MIC values represent the lowest concentration of antibiotic or antifungal that inhibits >90% of growth of the micro-organism. In hospitals MIC values are also used to determine strength of antibiotic therapy where one of the pharmacokinetic parameters is expressed as “hours over MIC”. The inventors therefore feel that MIC values, in contrast to e.g., killing assays, more closely relate to clinical efficacy of the drug and predict more correctly the success of a drug in the clinic.
Antimicrobial properties of the different peptides against a gram negative bacteria (Escherichia coli ATCC 035), a gram positive bacteria (Methicillin Resistant Staphylococcus aureus (MRSA) ATCC 2141) both obtained from the American Type Culture Collection (ATCC, Manassas (VA), USA) and Yeast (Candia Albicans Y01-19; clinical isolate of LUMC, Leiden, the Netherlands) were used for the MIC determination.
Minimal inhibitory concentrations (MICs) were determined by microdilution method according to CLSI guidelines using RPMI1640 medium diluted 1:4 in […] sterile filtered MilliQ and an bacterial inoculum of 5×10^5 CFU/ml. Plates were read after 20-24 h incubation at 35° C. in ambient air. MICs were recorded as the lowest concentration that inhibited visible growth.
Both tables show the MIC values of the various peptides for Methicillin Resistant Staphylococcus aureus (MRSA), Escherichia coli and/or Candida albicans. […]

Antimicrobial activity (MIC) compared with the reference peptide, acceptable antimicrobial activity:
RRRRSWC [RRRRSWC (SEQ ID NO:142)]
RRRRSVC [RRRRSVC (SEQ ID NO:143)]
RRRRQWC [RRRRQWC (SEQ ID NO:141)]
